{
  "source": "patent US20050124021A1",
  "about": "(priority 2000, published 2005)",
  "key": {"Rv1170 [1]": {"molecular_target": "T1, Rv1170 (Mycobacterium tuberculosis, UniProt P9WJN3)", "T1 sequence (P9WJN3 whole entry, looked up)": "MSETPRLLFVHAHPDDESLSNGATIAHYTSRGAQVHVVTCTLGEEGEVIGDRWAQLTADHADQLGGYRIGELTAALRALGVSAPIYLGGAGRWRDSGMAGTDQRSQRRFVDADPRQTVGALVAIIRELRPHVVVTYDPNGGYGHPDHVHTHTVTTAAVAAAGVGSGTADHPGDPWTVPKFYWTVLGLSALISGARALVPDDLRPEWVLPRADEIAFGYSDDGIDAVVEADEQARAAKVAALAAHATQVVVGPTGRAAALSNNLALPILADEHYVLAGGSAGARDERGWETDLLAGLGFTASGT", "assay_type": "biochemical, M. tuberculosis"}, "[2]": {"test_system": "M. smegmatis strain 49::H37Rv A18"}, "Rv1170 [3]": {"molecular_target": "T1, Rv1170", "assay_type": "biochemical, M. tuberculosis", "remark": "listed apart in the source"}},
  "data": [
    {"smiles": "CC(=O)N[C@H]1C(O)O[C@H](CO)[C@@H](O)[C@@H]1O", "note": "(stereo partly drawn) [GlcNAc, N-acetylglucosamine]", "values": [
      {"measurement": "Activity, deacetylase reaction (analysis for amine / deacetylase product)", "setting": "Rv1170 [1]", "result": "0.087 ± 0.005 nmol min^−1 mg of protein^−1"},
      {"measurement": "Decrease in reactivity versus GlcNAc-Ins (removal of inositol residue)", "setting": "Rv1170 [1]", "result": "more than 300 fold"}
    ]},
    {"smiles": "OO", "note": "[H2O2, hydrogen peroxide]", "values": [
      {"measurement": "Reduction of the peroxide sensitivity of mutant 49", "setting": "[2]", "result": "by a factor of two"}
    ]},
    {"smiles": "CC(=O)N[C@@H](CS)C(=O)N[C@H]1[C@@H](OC2[C@H](O)[C@H](O)C(O)[C@H](O)[C@H]2O)O[C@H](CO)[C@@H](O)[C@@H]1O", "note": "(stereo partly drawn) [MSH, 1-D-myo-inosityl-2-(N-acetylcysteinyl)amido-2-deoxy-α-D-glucopyranoside]", "values": [
      {"measurement": "Activity, amidase cleavage (analysis for AcCySmB or AcCys)", "setting": "Rv1170 [3]", "result": "0.002 ± 0.001 nmol min^−1 mg of protein^−1"},
      {"measurement": "Activity, deacetylase reaction (analysis for amine / deacetylase product)", "setting": "Rv1170 [1]", "result": "<10^−4 nmol min^−1 mg of protein^−1"},
      {"measurement": "Deacetylated by the invention deacetylase", "setting": "Rv1170 [1]", "result": "neither MSH nor MSmB is deacetylated"}
    ]}
  ]
}
